Measured values reported in US11771086B2, “Pest control composition including novel iminopyridine derivative” (priority 2012, dated 2023).

What was measured:
Format in all cases: in vivo
Laodelphax striatella = test: Reference Test Example 18 Pest control test of Laodelphax striatella (wheat seedling root treatment); conditions: wheat seedling roots treated; four days after release; 20 μg/seedling
Experimental: The drug was absorbed from the roots for 72 hours, and then ten second instar larvae of Laodelphax striatella were each released thereto. […] The test was performed in duplicate.

Plutella xylostella = test: Reference Test Example 1 Pest control test of Plutella xylostella (foliar treatment, single agent); set-up: Plutella xylostella (Reference Test Example 1), mortality of larvae: concentration or dose not given beside the values; conditions: foliar treatment, single agent
Excerpt: After an air drying process, second instar larvae were released thereto. […] Test in duplicate.

Aphis gossypii = test: Reference Test Example 3 Pest control test of Aphis gossypii (foliar treatment, single agent); set-up: Aphis gossypii (Reference Test Example 3), mortality of larvae: concentration or dose not given beside the values; conditions: foliar treatment, single agent

Compound	Laodelphax striatella (Reference Test Example 18), mortality of larvae (Laodelphax striatella)	Plutella xylostella (Reference Test Example 1), mortality of larvae (Plutella xylostella)	Aphis gossypii (Reference Test Example 3), mortality of larvae (Aphis gossypii)
FC(F)C(=S)N=c1ccccn1Cc1ccc(Cl)nc1 [Compound 1-21]	100%	80%	100%
FC(F)(Cl)C(=S)N=c1ccccn1Cc1ccc(Cl)nc1 [Compound 1-22]	100%	100%	–
FC(F)(F)C(F)(F)C(=S)N=c1ccccn1Cc1ccc(Cl)nc1 [Compound 1-23]	100%	100%	–
C/N=C(/N=c1\ccccn1Cc1ccc(Cl)nc1)C(F)(F)F [Compound 1-42, N-[1-((6-chloropyridin-3-yl)methyl)pyridin-2(1H)-ylidene]-2,2,2-trifluoro-N′-methylacetimidamide]	100%	100%	100%
CSCCN=C(N=c1ccccn1Cc1ccc(Cl)nc1)C(F)(F)F [Compound 1-150]	80%	100%	100%
O=C(/N=c1\ccccn1Cc1ccc(F)nc1)C(F)F [Compound 3-3, 2,2-difluoro-N-[1-((6-fluoropyridin-3-yl)methyl)pyridin-2(1H)-ylidene]acetamide]	80%	50%	100%
O=C(N=c1ccccn1Cc1ccc(F)nc1)C(F)(F)Cl [Compound 3-4]	100%	100%	100%
O=C(N=c1ccccn1Cc1ccc(F)nc1)C(F)(F)C(F)(F)F [Compound 3-5]	80%	100%	55%
Fc1ccc(Cn2ccccc2=NC(=S)C(F)(F)F)cn1 [Compound 3-20]	80%	55%	100%
O=C(N=c1ccccn1Cc1ccc(Br)nc1)C(F)F [Compound 4-3]	100%	100%	–
O=C(N=c1ccccn1Cc1ccc(Br)nc1)C(F)(F)Cl [Compound 4-4]	100%	100%	–
O=C(N=c1ccccn1Cc1ccc(Br)nc1)C(F)(F)C(F)(F)F [Compound 4-5]	100%	100%	100%
FC(F)(F)C(=S)N=c1ccccn1Cc1ccc(Br)nc1 [Compound 4-20]	100%	100%	100%
O=C(N=c1ccccn1Cc1cnc(Cl)c(F)c1)C(F)F [Compound 5-3]	100%	100%	–
O=C(N=c1ccccn1Cc1cnc(Cl)c(F)c1)C(F)(F)Cl [Compound 5-4]	100%	100%	–
Fc1cc(Cn2ccccc2=NC(=S)C(F)(F)F)cnc1Cl [Compound 5-20]	100%	100%	–

Compound	Laodelphax striatella (Reference Test Example 18), mortality of larvae (Laodelphax striatella)	Plutella xylostella (Reference Test Example 1), mortality of larvae (Plutella xylostella)	Aphis gossypii (Reference Test Example 3), mortality of larvae (Aphis gossypii)
O=C(N=c1ccccn1Cc1cnc(Cl)nc1)C(F)F [Compound 6-3]	100%	80%	–
O=C(N=c1ccccn1Cc1cnc(Cl)nc1)C(F)(F)Cl [Compound 6-4]	100%	90%	100%
O=C(N=c1ccc(Cl)cn1Cc1cnc(Cl)s1)C(F)(F)F [Compound P-218]	–	100%	60%
O=C(N=c1ccc(F)cn1Cc1cnc(Cl)s1)C(F)(F)F [Compound P-219]	–	80%	85%
Cc1ccn(Cc2ccc(Cl)nc2)c(=NC(=O)C(F)(F)F)c1 [Compound P-222]	100%	–	100%
Cc1ccc(=NC(=O)C(F)(F)F)n(Cc2ccc(Cl)nc2)c1 [Compound P-223]	75%	–	75%
O=C(N=c1ccccn1Cc1ccc(Cl)cc1)C(F)(F)F [Compound P-225]	–	–	90%
O=C(N=c1ccccn1Cc1cccnc1)C(F)(F)F [Compound P-226]	–	60%	100%
O=C(N=c1ccccn1Cc1cnc(Cl)c(Cl)c1)C(F)(F)F [Compound P-230]	–	100%	100%
O=C(N=c1cc(F)ccn1Cc1ccc(Cl)nc1)C(F)(F)F [Compound P-232]	–	–	80%
O=C(N=c1c(F)cccn1Cc1ccc(Cl)nc1)C(F)(F)F [Compound P-233]	75%	–	100%
O=C(CCl)N=c1ccccn1Cc1ccc(Cl)nc1 [Compound P-236]	–	–	100%
O=C(N=c1ccccn1Cc1ccc(Cl)nc1)C(Cl)Br (stereo not drawn) [Compound P-240]	100%	–	100%
O=C(N=c1ccccn1Cc1ccc(Cl)nc1)C(Br)Br [Compound P-241]	100%	–	100%
O=C(CBr)N=c1ccccn1Cc1ccc(Cl)nc1 [Compound P-244]	100%	–	100%
